Experiment [1] relates to anti-KLH antibody production. The experiment can be described thus: Suppressive effect on anti-KLH antibody production in mice (ELISA of serum IgG). The format is in vivo, mouse (Balb/c). The conditions noted are these: Example 7. The procedure:
Day 5 and day 3 prior to the antigen administration, 100 μg of each Peptide (I) to (VI) of the present invention composed of 9 amino acid residues indicated by Sequence ID No. 1 in the Sequence Listing were dissolved in 200 μl of physiological saline. The resulting solution was subcutaneously administered to 9-week-old Balb/c mice. As a control, a non-administered group to which the same amount of physiological saline was administered was employed. In 200 μl of physiological saline, 25 μg of KLH were dissolved as an antigen and the resulting solution was subcutaneously administered. The blood was collected on day 21 after antigen administration and an antibody titer was measured by the method which is described below.
KLH was diluted to 10 μg/ml with a phosphate buffered physiological saline (PBS). Fifty μl portions of the resulting solution were poured into a 96-well microplate and the plate was allowed to stand at 4iC overnight. After the microplate was washed three times with 0.05% Tween®-20-containing PBS (T-PBS), 200 μl portions of 0.5% casein tris-buffered physiological saline (casein TBS) were poured into wells, respectively. […] The microplate was washed three times with T-PBS and 50 μl portions of the mouse serum diluted to 1/200 with casein TBS were poured into the wells, followed by reaction for one hour (primary reaction).
The resulting microplate was washed three times with T-PBS, to which 50 μl portions of an anti-mouse IgG-peroxidase-labeled antibody (TAGO Co.) diluted to 1/4000 with casein TBS were poured. The reaction was effected at room temperature for one hour (secondary reaction). After the completion of the secondary reaction, the plate was washed three times again. Fifty μl portions of a substrate liquid/chromogen (chromogen substrate: Behringwerke AG) were poured into wells, respectively, followed by reaction at room temperature for 30 minutes. After the completion of the reaction, 0.5N diluted sulfuric acid was added to terminate the reaction and an absorbance at 450 nm was measured by a calorimeter ("BEP-II ", product of Behringwerke AG/Germany) with the absorbance at 650 nm as a control.
In a similar manner to Example 3, suppressive effects of Peptides (I), (VII) to (XV) on anti-KLH antibody production in mice were studied.

Experiment [2] concerns anti-OVA antibody production. The experiment can be described thus: Suppressive effect on anti-OVA antibody production in mice (ELISA of serum IgG). It counts as in vivo, mouse (Balb/c). Also noted: Anti OVA Ig-G antibody titer: dose or concentration left out as unconfirmed. The conditions noted are these: for anti-OVA antibody production compared with Peptide (I) administered group / anti-OVA antibody production compared with the non-administered group and Peptide (I) administered group: Example 8. The procedure: Day 5 and day 3 prior to the antigen administration, Peptide (I) composed of 9 amino acid residues as indicated by Sequence ID No. 1 in the Sequence Listing of the present invention and a synthetic peptide 15 composed of 15 amino acid residues derived from clone 17.2 TcR, which peptide had been reported by Mohapatra et al. as described above, 100 g each, were dissolved in 200 of physiological saline and each solution thus obtained was subcutaneously administered to 9-week-old Balb/c mice. As a control, a non-administered group to which the same amount of physiological saline was administered was employed. In 200 l of physiological saline, 100 g of OVA (Sigma Chemical Co.) were dissolved, followed by subcutaneous administration. Blood was collected on day 21 after antigen administration and an antibody titer was measured by the method described below.
OVA was diluted to 10 µg/ml with phosphate buffered saline (PBS) and 50 l portions of the solution were poured in a 96-well microplate. The coating operation was conducted overnight at […]. The microplate was then washed three times with a 0.05% Tween®-20-containing PBS (T-PBS). 200 l portions of 0.5% casein-containing tris buffered physiological saline (casein TBS) were poured in each well and the microplate was allowed to stand at room temperature for one hour. The microplate was then washed three times with T-PBS. After the serum of the blood collected from the mice was diluted to 1/200 with 0.5% casein TBS, 50 l portions of the diluted serum were poured in each well and the plate was allowed to stand for one hour (primary reaction).
After the completion of the primary reaction, the microplate was washed three times with T-PBS. Fifty l portions of anti-mouse IgG-peroxidase-labeled antibody (TAGO Co.) diluted to 1/4000 with 0.5% casein TBS were poured in each well, followed by reaction at room temperature for one hour (secondary reaction). After the completion of the secondary reaction, the plate was washed three times again. Fifty l portions of a substrate liquid/chromogen (chromogen substrate: Behringwerke AG) were poured in each well, followed by reaction at room temperature for 30 minutes. After the completion of the reaction, 0.5N diluted sulfuric acid was added to terminate the reaction and an absorbance at 450 nm was measured by a calorimeter ("BEP-II", product of Behringwerke AG/Germany) with an absorbance at 650 nm as a control.
In a similar manner to Example 2, the suppressive effects of Peptides (I), (VII) to (XIV) on the anti-OVA antibody production in mice were measured.
A general note: An ELISA detects its analyte on a solid surface through an enzyme-linked reagent.

For experiment [3], the system named is EAE model mice. The experiment can be described thus: Onset suppressive effect on EAE model mice. The format is in vivo, mouse (SJL). The procedure: As an antigen, guinea pig spinal chord homogenate was employed. The guinea pig spinal chord homogenate was diluted with PBS to be 6.6 mg/ml, followed by the addition of the equivalent amount of Freunds complete adjuvant. The resulting mixture was formed into an emulsion by an ultrasonic sonicator. The resulting emulsion was administered to two areas under the lateral skin in a total amount of 300 μl. Day 5 and day 3 prior to antigen administration, and 5 days a week for 4 weeks after antigen administration, the solution of Peptide (I) dissolved in 100 μl physiological saline was subcutaneously administered to a 14-week old SJL mouse. Incidentally, in order to increase an onset ratio, […] of pertussis toxin (PTX) were intravenously administered as an enhancer on the day of antigen administration and two days after antigen administration. Observation of the onset was performed from day 14 to day 28 after primary antigen administration. The onset was scored based on the following standard criteria [Pettinelli, C. B., Fritz, D. E., and McFarlin, D. E. J. Immunl., 129, No. 3, 1024-1028 (1982)]. In Table 3, values of average score+standard deviation (SD) in each administration group on day 22, day 25 and day 28 after primary antigen administration are shown.
Score 1: Slight paralysis of hind leg with tail weakness
Score 2: Moderate paralysis of hind leg with tail weakness
Score 3: Total paralysis of hind leg
Score 4: Slight paralysis of forward leg with total paralysis of hind leg
Score 5: Total paralysis of all leg
Score 6: Death from paralysis

No end group written: not given here.

As for “AKLTFGKA [Peptide (XII), Ala-Lys-Leu-Thr-Phe-Gly-Lys-Ala]”, the “anti-KLH antibody production compared with Peptide (I) administered group” value in experiment [1] is listed as “not suppressed”.
As to “AKLTAGKG [Peptide (XIV), Ala-Lys-Leu-Thr-Ala-Gly-Lys-Gly]”, in experiment [2], the “anti-OVA antibody production compared with Peptide (I) administered group” value is “not suppressed”. Moreover, the “anti-KLH antibody production compared with Peptide (I) administered group” value in experiment [1] was “not suppressed”.
Take “KLTFGKG [Peptide (XV), Lys-Leu-Thr-Phe-Gly-Lys-Gly]”: the “anti-KLH antibody production compared with Peptide (I) administered group” value in experiment [1] is reported as “not suppressed”.
On to “AKLTFGAG [Peptide (XI), Ala-Lys-Leu-Thr-Phe-Gly-Ala-Gly]”, for which the “anti-OVA antibody production compared with the non-administered group and Peptide (I) administered group” value in experiment [2] was “significantly suppressed”. Besides, the “anti-KLH antibody production compared with the non-administered group and Peptide (I) administered group” value in experiment [1] is “significantly suppressed”.
“AALTFGKG [Peptide (VIII), Ala-Ala-Leu-Thr-Phe-Gly-Lys-Gly]”: the “anti-KLH antibody production compared with Peptide (I) administered group” value in experiment [1] is “not suppressed”.
“AKLTFGKG [Peptide (VII), Ala-Lys-Leu-Thr-Phe-Gly-Lys-Gly]”: the “anti-OVA antibody production compared with the non-administered group and Peptide (I) administered group” value in experiment [2] is listed as “significantly suppressed”. In addition, the “anti-KLH antibody production compared with the non-administered group and Peptide (I) administered group” value in experiment [1] is “significantly suppressed”.
Regarding “AKATFGKG [Peptide (XIII), Ala-Lys-Ala-Thr-Phe-Gly-Lys-Gly]”, the “anti-OVA antibody production compared with Peptide (I) administered group” value in experiment [2] is “not suppressed”. Also, the “anti-KLH antibody production compared with Peptide (I) administered group” value in experiment [1] is “not suppressed”.
With “AKLTFGKGT [Peptide (I), Ala-Lys-Leu-Thr-Phe-Gly-Lys-Gly-Thr]”, the “EAE average score ± SD” value stood at 1.6 ± 1.8 score in experiment [3] (1 μg/body s.c., Day 22); 0.9 ± 1.1 score in experiment [3] (1 μg/body s.c., Day 25); 1.8 ± 1.9 score in experiment [3] (1 μg/body s.c., Day 28); 0.4 ± 0.7 score in experiment [3] (5 μg/body s.c., Day 22); 1.0 ± 1.1 score in experiment [3] (5 μg/body s.c., Day 25); 0.7 ± 0.8 score in experiment [3] (5 μg/body s.c., Day 28). For the same substance, the “EAE average score ± SD” value was determined as 0.3 ± 0.4 score in experiment [3] (25 μg/body s.c., Day 22 after primary antigen administration); 0.1 ± 0.3 score in experiment [3] (25 μg/body s.c., Day 25); 0.0 ± 0.0 score in experiment [3] (25 μg/body s.c., Day 28). The “onset of EAE compared with physiological saline group” value in experiment [3] (5 μg/body, day 25 and day 28, significant difference of 5%) is reported as “suppressed”; in experiment [3] (25 μg/body, from day 22 significant difference of 5%, from day 25 of 1%), “suppressed”. For the same substance, the “onset of EAE” value in experiment [3] (administration of Peptide (I), overall) was “suppressed”. Besides, the “Anti OVA Ig-G antibody titer” value in experiment [2] (Example 2, Table 1, peptide s.c. day 5 and day 3 prior to OVA, blood day 21, 8 mice per group) was determined as 8.8 ± 10.8 unit. For the same substance, the “anti-OVA antibody production compared with the non-administered group” value in experiment [2] (Example 2, 8 mice per group) is reported as “significantly suppressed”.
Turning to “AKLTFAKG [Peptide (X), Ala-Lys-Leu-Thr-Phe-Ala-Lys-Gly]”, the “anti-KLH antibody production compared with the non-administered group and Peptide (I) administered group” value in experiment [1] is recorded as “significantly suppressed”.
Regarding “AKLAFGKG [Peptide (IX), Ala-Lys-Leu-Ala-Phe-Gly-Lys-Gly]”, the “anti-OVA antibody production compared with the non-administered group and Peptide (I) administered group” value in experiment [2] is “significantly suppressed”. Further, the “anti-KLH antibody production compared with the non-administered group and Peptide (I) administered group” value in experiment [1] is “significantly suppressed”.
